Measured values published in ChEMBL document CHEMBL1148878, “Himbacine derived thrombin receptor antagonists: discovery of a new tricyclic core” (Bioorg Med Chem Lett, 2007).
The source made the active and inactive calls. The rule behind the calls is not given here.

What was measured:
[1] = biological target: T1, Proteinase-activated receptor 1 (Homo sapiens, UniProt P25116); test: Displacement of [3H]haTRAP from PAR1
T1 sequence (P25116 whole entry): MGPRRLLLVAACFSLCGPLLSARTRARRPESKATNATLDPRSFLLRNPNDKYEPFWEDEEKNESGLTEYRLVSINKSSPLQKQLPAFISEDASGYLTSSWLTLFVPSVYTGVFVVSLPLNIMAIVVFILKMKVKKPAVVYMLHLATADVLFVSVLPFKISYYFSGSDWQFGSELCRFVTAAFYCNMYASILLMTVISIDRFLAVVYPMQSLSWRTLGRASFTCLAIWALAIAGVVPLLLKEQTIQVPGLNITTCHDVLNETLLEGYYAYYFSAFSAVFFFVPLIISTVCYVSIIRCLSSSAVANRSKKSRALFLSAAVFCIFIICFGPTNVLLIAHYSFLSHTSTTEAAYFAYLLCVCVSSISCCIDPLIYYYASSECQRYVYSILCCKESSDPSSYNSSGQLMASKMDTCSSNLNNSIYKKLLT

[2] = AUC in cynomolgus monkey at 3 mg/kg, po; type: ADME, organism-based, Macaca fascicularis; design: dose 3 mg/kg, route oral; conditions: plasma
[3] = AUC (0 to 6 hrs) in rat; type: ADME, organism-based; design: time < 6 hr; concentration or dose not given beside the values; conditions: plasma
Cynomolgus monkey [4] = test: Inhibition of platelet aggregation in cynomolgus monkey at 3 mg/kg, po; type: functional, organism-based; design: dose 3 mg/kg; conditions: Macaca fascicularis
Cynomolgus monkey [5] = test: Inhibition of platelet aggregation in cynomolgus monkey at 3 mg/kg, po upto 5 hrs; type: functional, organism-based; design: dose 3 mg/kg; conditions: Macaca fascicularis
Cynomolgus monkey [6] = test: Inhibition of platelet aggregation in cynomolgus monkey after 24 hrs; type: functional, Macaca fascicularis
[7] = AUC (0 to 24 hrs) in cynomolgus monkey at 1 mg/kg, po; type: ADME, organism-based, Macaca fascicularis; design: time < 24 hr, dose 1 mg/kg, route oral; conditions: plasma
Cynomolgus monkey [8] = test: Inhibition of platelet aggregation in cynomolgus monkey at 2 mg/kg, po after 24 hrs; type: functional, organism-based; design: dose 2 mg/kg; conditions: Macaca fascicularis
[9] = test system: Proteinase-activated receptor 1 (Homo sapiens); test: Dissociation half-life from PAR-1 receptor

SMILES: O=C1OC[C@H]2[C@@H]1Cc1ccccc1[C@@H]2/C=C/c1ccc(-c2cccc(C(F)(F)F)c2)cn1
- IC50 [1]: 10 nM
- AUC [2]: < 300 ng·h/mL

SMILES: O=C1OC[C@H]2[C@@H]1Cc1ccc(Cl)cc1[C@@H]2/C=C/c1ccc(-c2cccc(Cl)c2)cn1 (racemic)
- IC50 [1]: 120 nM

SMILES: O=C1OC[C@H]2[C@@H]1Cc1c(ccc(F)c1F)[C@@H]2/C=C/c1ccc(-c2cccc(Cl)c2)cn1
- IC50 [1]: 15.5 nM
- AUC(0-t) at 6 h [3]: 264 ng·h/mL
- Activity (Cynomolgus monkey [4]): inactive

SMILES: O=C1OC[C@H]2[C@@H]1Cc1ccc(Cl)cc1[C@@H]2/C=C/c1ccc(-c2cccc(C(F)(F)F)c2)cn1 (racemic)
- IC50 [1]: 138 nM

SMILES: O=C1OC[C@H]2[C@H](/C=C/c3ccccn3)c3ccccc3C[C@@H]12
- IC50 [1]: 12000 nM

SMILES: O=C1OC[C@H]2[C@@H]1Cc1c(F)cc(F)cc1[C@@H]2/C=C/c1ccc(-c2cccc(C(F)(F)F)c2)cn1
- IC50 [1]: 21.5 nM

SMILES: COc1ccc2nc(/C=C/[C@@H]3c4ccccc4C[C@H]4C(=O)O[C@H](C)[C@@H]34)ccc2c1
- IC50 [1]: 580 nM

SMILES: COc1ccc2nc(/C=C/[C@H]3c4ccccc4C[C@@H]4C(=O)O[C@H](C)[C@@H]43)ccc2c1
- IC50 [1]: 90 nM

SMILES: O=C1OC[C@H]2[C@@H]1Cc1ccccc1[C@@H]2/C=C/c1ccc(-c2cccc(Cl)c2)cn1
- IC50 [1]: 14.5 nM
- AUC [2]: 6300 ng·h/mL
- Activity (Cynomolgus monkey [5]): Active

SMILES: O=C1OC[C@H]2[C@@H]1Cc1c(Cl)cccc1[C@@H]2/C=C/c1ccc(-c2cccc(C(F)(F)F)c2)cn1 (racemic)
- IC50 [1]: 225 nM

SMILES: O=C1OC[C@H]2[C@@H]1Cc1ccccc1[C@@H]2/C=C/c1ccc(-c2cccc(F)c2)cn1
- IC50 [1]: 7.5 nM
- AUC [2]: < 300 ng·h/mL

SMILES: O=C1OC[C@H]2[C@@H]1Cc1c(F)cc(F)cc1[C@@H]2/C=C/c1ccc(-c2cccc(Cl)c2)cn1 (racemic)
- IC50 [1]: 46.5 nM

SMILES: O=C1OC[C@H]2[C@@H]1Cc1ccc(F)cc1[C@@H]2/C=C/c1ccc(-c2cccc(C(F)(F)F)c2)cn1
- IC50 [1]: 31.5 nM

SMILES: O=C1OC[C@H]2[C@@H]1Cc1cc(F)ccc1[C@@H]2/C=C/c1ccc(-c2cccc(Cl)c2)cn1
- IC50 [1]: 13 nM
- AUC(0-t) at 6 h [3]: 3700 ng·h/mL
- Inhibition (Cynomolgus monkey [6]): 60%

SMILES: COc1ccc2nc(/C=C/[C@@H]3c4ccccc4C[C@H]4C(=O)O[C@@H](C)[C@@H]34)ccc2c1
- IC50 [1]: 3140 nM

SMILES: O=C1OC[C@H]2[C@@H]1Cc1cc(F)ccc1[C@@H]2/C=C/c1ccc(-c2cccc(F)c2)cn1
- IC50 [1]: 7.6 nM
- AUC(0-t) at 24 h [7]: 6200 ng·h/mL
- Activity (Cynomolgus monkey [8]): Active
- AUC(0-t) at 6 h [3]: 3960 ng·h/mL
- dissociation half-life [9]: 2.32 h

SMILES: COc1ccc2nc(/C=C/[C@@H]3c4ccccc4C[C@H]4C(=O)OC(C)(C)[C@@H]34)ccc2c1 (racemic)
- IC50 [1]: 225 nM

SMILES: O=C1OC[C@H]2[C@@H]1Cc1c(F)cccc1[C@@H]2/C=C/c1ccc(-c2cccc(Cl)c2)cn1
- IC50 [1]: 29 nM

SMILES: COc1ccc2nc(/C=C/[C@H]3c4ccccc4C[C@@H]4C(=O)O[C@@H](C)[C@@H]43)ccc2c1
- IC50 [1]: 9170 nM

SMILES: O=C1OC[C@H]2[C@@H]1Cc1c(Cl)cccc1[C@@H]2/C=C/c1ccc(-c2cccc(Cl)c2)cn1 (racemic)
- IC50 [1]: 328 nM

SMILES: O=C1OC[C@H]2[C@@H]1Cc1cccc(F)c1[C@@H]2/C=C/c1ccc(-c2cccc(F)c2)cn1 (racemic)
- IC50 [1]: 85.5 nM

SMILES: COc1ccc2nc(/C=C/[C@@H]3c4ccccc4C[C@H]4C(=O)OC[C@@H]34)ccc2c1 (racemic)
- IC50 [1]: 12.5 nM

SMILES: O=C1OC[C@H]2[C@@H]1Cc1ccc(F)cc1[C@@H]2/C=C/c1ccc(-c2cccc(F)c2)cn1
- IC50 [1]: 10 nM
- AUC(0-t) at 6 h [3]: 5050 ng·h/mL

SMILES: O=C1OC[C@H]2[C@@H]1Cc1cccc(F)c1[C@@H]2/C=C/c1ccc(-c2cccc(Cl)c2)cn1 (racemic)
- IC50 [1]: 330 nM

SMILES: O=C1OC[C@H]2[C@@H]1Cc1c(ccc(F)c1F)[C@@H]2/C=C/c1ccc(-c2cccc(F)c2)cn1
- IC50 [1]: 7 nM

SMILES: O=C1OC[C@H]2[C@@H]1Cc1ccc(F)cc1[C@@H]2/C=C/c1ccc(-c2cccc(Cl)c2)cn1
- IC50 [1]: 10 nM
- AUC(0-t) at 6 h [3]: 6720 ng·h/mL

SMILES: O=C1OC[C@H]2[C@@H]1Cc1c(F)cccc1[C@@H]2/C=C/c1ccc(-c2cccc(C(F)(F)F)c2)cn1 (racemic)
- IC50 [1]: 65 nM

SMILES: O=C1OC[C@H]2[C@@H]1Cc1c(F)cccc1[C@@H]2/C=C/c1ccc(-c2cccc(F)c2)cn1
- IC50 [1]: 20.5 nM
- AUC(0-t) at 6 h [3]: 4590 ng·h/mL

SMILES: O=C1OC[C@H]2[C@@H]1Cc1c(Cl)cccc1[C@@H]2/C=C/c1ccc(-c2cccc(F)c2)cn1 (racemic)
- IC50 [1]: 63.5 nM

SMILES: O=C1OC[C@H]2[C@@H]1Cc1ccc(Cl)cc1[C@@H]2/C=C/c1ccc(-c2cccc(F)c2)cn1
- IC50 [1]: 14.5 nM
